Measured values reported in article PMC7369637, “Inhibition of Resistance-Refractory P. falciparum Kinase PKG Delivers Prophylactic, Blood Stage, and Transmission-Blocking Antiplasmodial Activity” (Cell Chemical Biology, 2020).

Assays:
Format in all cases: cell-based
ed. Dd2-B2 TKL3T1268R = test: 72-h ABS assay, CRISPR/Cas9-edited line; conditions: Plasmodium falciparum, parent Dd2-B2 wild-type
Description: (§1) Synchronicity was achieved using three rounds of sorbitol treatment on early rings, spaced 48 h apart, followed by magnetic purification of segmented schizonts following the final sorbitol treatment. Parasites were highly synchronous to within a 3 h window of development. Assays were repeated on at least three independent occasions (each with technical duplicates) and statistical significance was assessed using Mann Whitney U tests.
(§2) The resulting MMV030084-resistant parasites were cloned by limiting dilution ([Baker et al., 2017]) to obtain genetically homogenous cultures for further phenotyping and whole-genome sequencing. A second round of […]. […] Drug susceptibility of resistant lines was assessed using a 72 h ABS assay as described above, and a Mann Whitney U test was applied to assess statistically significant differences.
(§3) A CRISPR/Cas9 targeted gene editing strategy using an all-in-one plasmid approach was applied to introduce T1268R, I1250M and T1268R+I1250M in wild-type Dd2-B2 parasites or to produce a TKL3 KO line by inserting a stop codon and frameshift at amino acid position 1268. […] WR99210 (2.5 nM) was added to the culture medium 24 h after electroporation to select for successfully transfected parasites and was maintained in the medium until edited parasites were detected. […]

ed. Dd2-B2 TKL3I1250M = test: 72-h ABS assay, CRISPR/Cas9-edited line; conditions: Plasmodium falciparum, parent Dd2-B2 wild-type
Description: as §1, §2, §3

[1] = test system: mature (stage V) NF54 gametocytes; test: Gametocyte susceptibility, saponin lysis-based MitoTracker high-content imaging assay; conditions: Plasmodium falciparum, saponin lysis-based sexual stage assay, 72 h
Description: This was determined using two separate assays. The first involved MitoTracker staining and high-content imaging. Mature (stage V) gametocytes were generated from NF54 ABS cultures as described elsewhere ([Plouffe et al., 2016]). Briefly, asexual parasites were cultured at 5% hematocrit in O^+ human erythrocytes in serum-containing complete media (RPMI 1640 (Life Technologies), 0.05 mg/ml gentamicin (Life Technologies), 0.014 mg/ml hypoxanthine (Sigma), 38.4 mM HEPES (Sigma), 0.2% (w/v) sodium bicarbonate (Sigma), D-glucose 0.2% (w/v) (Sigma), 3.4 mM sodium hydroxide (Sigma), 4.3% (v/v) heat-inactivated human serum (O^+, Interstate Blood bank), and 0.2% (w/v) AlbuMAX® II (Life Technologies)). […] The second assay assessed gametocyte susceptibility using a luciferase-based assay with 3D7elo1-pfs16-CBG99 transgenic parasites ([Cevenini et al., 2014]). […] Cell viability was then evaluated by adding a non-lysing formulation of 0.5 mM D-Luciferin substrate and measuring luciferase activity for 0.5 s on a Varioskan™ Flash Multimode Reader (Thermo Scientific). The percent of viability was calculated as a function of drug concentration and IC50 values were derived by non-linear regression analysis and curve fitting (using GraphPad Prism 6.0).

Work on `CC(C)(CN)c1nc(-c2ccc(Cl)c(O)c2)c(-c2ccncc2)[nH]1` [MMV030084] yielded an IC50 (ed. Dd2-B2 TKL3T1268R) of 317 nM, an IC50 (ed. Dd2-B2 TKL3I1250M) of 307 nM and an IC50 [1] of over 40000 nM.
